Measured values as given in publication PMC6335200 (Journal of medicinal chemistry, 2018).

Legend:
[1] = target: T1, GAK (Homo sapiens, UniProt O14976); settings: read-out: GAK affinity Kd; cited from earlier work
T1 sequence (O14976 1-1311): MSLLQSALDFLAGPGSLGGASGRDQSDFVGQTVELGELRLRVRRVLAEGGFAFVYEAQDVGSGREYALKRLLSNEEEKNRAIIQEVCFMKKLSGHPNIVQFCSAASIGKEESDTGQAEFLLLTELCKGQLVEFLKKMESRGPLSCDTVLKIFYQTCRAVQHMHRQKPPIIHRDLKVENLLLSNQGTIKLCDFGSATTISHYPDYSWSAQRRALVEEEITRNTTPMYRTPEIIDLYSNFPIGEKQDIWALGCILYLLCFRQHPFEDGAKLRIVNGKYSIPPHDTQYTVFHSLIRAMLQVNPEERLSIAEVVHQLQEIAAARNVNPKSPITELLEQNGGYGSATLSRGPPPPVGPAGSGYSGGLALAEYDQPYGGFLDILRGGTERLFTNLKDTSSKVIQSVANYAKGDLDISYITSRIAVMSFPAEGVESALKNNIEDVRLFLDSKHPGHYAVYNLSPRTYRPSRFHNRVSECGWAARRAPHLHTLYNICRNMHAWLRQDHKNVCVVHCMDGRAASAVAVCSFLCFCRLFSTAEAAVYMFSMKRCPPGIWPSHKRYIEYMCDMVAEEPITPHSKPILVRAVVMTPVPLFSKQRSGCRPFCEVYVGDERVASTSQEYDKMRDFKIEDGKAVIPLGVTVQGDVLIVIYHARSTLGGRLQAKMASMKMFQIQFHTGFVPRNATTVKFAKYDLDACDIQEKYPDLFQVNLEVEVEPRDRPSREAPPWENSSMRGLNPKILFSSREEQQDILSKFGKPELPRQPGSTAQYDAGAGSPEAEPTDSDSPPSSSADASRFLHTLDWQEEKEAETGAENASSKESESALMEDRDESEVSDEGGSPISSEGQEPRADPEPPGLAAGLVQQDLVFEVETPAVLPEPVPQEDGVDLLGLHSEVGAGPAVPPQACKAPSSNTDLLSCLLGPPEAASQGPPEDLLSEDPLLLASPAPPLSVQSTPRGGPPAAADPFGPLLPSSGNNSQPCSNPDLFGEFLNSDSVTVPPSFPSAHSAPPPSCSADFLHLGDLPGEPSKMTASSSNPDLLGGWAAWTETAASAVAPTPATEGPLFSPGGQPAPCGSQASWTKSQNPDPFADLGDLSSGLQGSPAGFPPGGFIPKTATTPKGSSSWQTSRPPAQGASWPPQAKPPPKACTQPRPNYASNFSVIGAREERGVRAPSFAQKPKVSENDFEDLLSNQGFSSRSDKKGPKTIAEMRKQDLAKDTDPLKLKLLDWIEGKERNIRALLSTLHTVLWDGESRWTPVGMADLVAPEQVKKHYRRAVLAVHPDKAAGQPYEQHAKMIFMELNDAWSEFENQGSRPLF

[2] = test system: EBOV (Kikwit isolate)
[3] = test system: EBOV (Kikwit isolate); assay: microbe, parasite or virus in culture; settings: Zaire ebolavirus, Huh-7, 48 h, read-out: EBOV antiviral activity EC50
[4] = test system: AP2M1 phosphorylation; assay: AP2M1 phosphorylation by Western analysis in Huh7 cells; format: cell-based, Human; settings: calyculin A 30 minutes before lysis
[5] = test system: CHIKV (strain AF15561); format: cell-based, Chikungunya virus

Structure (SMILES) | Kd [1] | anti-EBOV activity (in words) [2] | EC50 [3] | effect on AP2M1 phosphorylation (in words) [4] | effect on CHIKV infection (in words) [5]
COc1cc(-c2cnc3c(N4CCOCC4)snc3c2)ccc1N [Compound 4] | 0.008 µM | no anti-EBOV activity beyond cytotoxicity |  |  | 
COc1cc(-c2cnc3c(N4C[C@@H](C)O[C@@H](C)C4)snc3c2)ccc1N [Compound 12r, 4-(3-(cis-2,6-Dimethylmorpholino)isothiazolo[4,3-b]pyridin-6-yl)-2-methoxyaniline] |  |  | ~2 µM | reduced AP2M1 phosphorylation | dose-dependent decrease in CHIKV infection
